Tests used:
Streptococcus pyogenes = assay: Antibiotic activity by filter paper disc on agar plates; format: cell-based; conditions: for inhibition zone around disc (antibiotic activity against Streptococcus pyogenes): 20 μL of 1.6 mM sample in MeOH on sterilized filter paper disc, Mueller-Hinton agar plates, overnight at 37° C.; for activity against Streptococcus pyogenes: purified compounds, S. pyogenes grown on Mueller-Hinton agar plates
Method: The antibiotic activity of a compound of formula (13) and (14) against Streptococcus pyogenes was examined by separately applying 20 μL of each sample (1.6 mM in MeOH) to sterilized filter paper discs which were placed onto the surface of S. pyogenes grown on Mueller-Hinton agar plates (Mangahas, 1996).

[1] = molecular target: A. eutrophus PHA synthase (Cupriavidus necator, UniProt P23608); conditions: read-out: apparent Km value (substrate concentration at half-optimal velocity); enzyme concentration constant at 0.95 mg/ml; 40 or 200 μl assay volumes; estimated from FIG. 10
[2] = molecular target: the molecule itself; assay: size exclusion chromatography, native MW (about 100-160 kDa and about 50-80 kDa forms)
[3] = Storage stability of purified PHA synthase (activity remaining); format: physicochemical
Source text: PHA synthase purified from insect cells appears to be relatively stable.

| Molecule | inhibition zone around disc (antibiotic activity against Streptococcus pyogenes) (Streptococcus pyogenes) | activity against Streptococcus pyogenes (Streptococcus pyogenes) | other results |
| --- | --- | --- | --- |
| CCC1OC(=O)C(C)C(OC2OC(C)CC(N(C)C)C2O[C@@H]2O[C@H](CO)[C@@H](O)[C@H](O)[C@H]2O)C(C)CC(C)C(=O)C=CC1(C)O (stereo partly drawn) [compound of formula (13), C-2′β-glucosylated methymycin] | no such clearings were discernible | – | – |
| 3-hydroxybutyrate CoA [HBCoA] | – | – | Km [1]: 2.5 mM |
| CC[C@H]1OC(=O)[C@H](C)[C@@H](O[C@@H]2O[C@H](C)C[C@H](N(C)C)[C@H]2O)[C@@H](C)C[C@@H](C)C(=O)/C=C/[C@]1(C)O [compound of formula (1), methymycin] | clearly visible inhibition zones | clearly visible inhibition zones | – |
| C[C@@H]1C[C@H](N(C)C)[C@@H](O)[C@H](O[C@H]2[C@@H](C)C[C@@H](C)C(=O)/C=C/[C@@H](C)[C@@H]([C@@H](C)O)OC(=O)[C@@H]2C)O1 [compound of formula (2), neomethymycin] | clearly visible inhibition zones | clearly visible inhibition zones | – |
| A. eutrophus PHA synthase (phbC gene product), produced in insect cells with a baculovirus vector (enzyme, The 64 kDa band; On the blots it was denatured (SDS-PAGE); The N-terminus is heterogeneous (starts at A7 or S10); also called PHB synthase; intact PHB synthase (band a)) AAASTQEGKSQPFKVTPGPFDPATWLEWSRQWQGTEGNGHAAASGIPGLDALAGVKIAPAQLGDIQQRYMKDFSALWQAMAEGKAEATGPLHDRRFAGDAWRTNLPYRFAAAFYLLNARALTELADAVEADAKTRQRIRFAISQWVDAMSPANFLATNPEAQRLLIESGGESLRAGVRNMMEDLTRGKISQTDESAFEVGRNVAVTEGAVVFENEYFQLLQYKPLTDKVHARPLLMVPPCINKYYILDLQPESSLVRHVVEQGHTVFLVSWRNPDASMAGSTWDDYIEHAAIRAIEVARDISGQDKINVLGFCVGGTIVSTALAVLAARGEHPAASVTLLTTLLDFADTGILDVFVDEGHVQLREATLGGGAGAPCALLRGLELANTFSFLRPNDLVWNYVVDNYLKGNTPVPFDLLFWNGDATNLPGPWYCWYLRHTYLQNELKVPGKLTVCGVPVDLASIDVPTYIYGSREDHIVPWTAAYASTALLANKLRFVLGASGHIAGVINPPAKNKRSHWTNDALPESPQQWLAGAIEHHGSWWPDWTAWLAGQAGAKRAAPANYGNARYRAIEPAPGRYVKAKA | – | – | binding result [2]: binds; synthase activity remained after storage ([3]; after 7 weeks stored at −20° C. in the presence of 50% glycerol): approximately 75%; synthase activity remained after storage ([3]; after 7 weeks stored in liquid N2): approximately 50% |
